Laboratory results as given in ChEMBL document CHEMBL3046098, “Effect of tropine derivatives, antimuscarinic agents, on the growth of Bombyx mori larvae” (1998).
The source made the active and inactive calls. The calls are words filed in the database; no cut-off is given here.

Columns and labels:
Bombyx mori [1] = assay: Insecticidal activity against Bombyx mori Shunrei x Shogetu fourth-instar larvae assessed as effect on larval growth at 100 ppm administered in diet relative to untreated control; type: functional, organism-based
Bombyx mori [2] = assay: Insecticidal activity against Bombyx mori Shunrei x Shogetu fourth-instar larvae assessed as incidence of prolongation of 4th ecdysis at 30 ppm administered in diet relative to untreated control; type: functional
Bombyx mori [3] = assay: Effect on feeding in Bombyx mori Shunrei x Shogetu fourth-instar larvae assessed as change in quantity of excrement at 10 to 30 ppm administered in diet relative to untreated control; type: functional, organism-based
Bombyx mori [4] = assay: Insecticidal activity against Bombyx mori Shunrei x Shogetu fourth-instar larvae assessed as induction of delay in 4th ecdysis at 100 ug/larva applied daily through topical route (reference value: 4.3 +/- 0.48 days); type: functional
Bombyx mori [5] = assay: Insecticidal activity against Bombyx mori Shunrei x Shogetu fourth-instar larva assessed as effect on larval growth at 160 ug/larvae upon topial application; type: functional, organism-based
Bombyx mori [6] = assay: Insecticidal activity against Bombyx mori Shunrei x Shogetu fourth-instar larva assessed as effect on larval molting at 160 ug/larvae upon topial application; type: functional, organism-based
Bombyx mori [7] = assay: Insecticidal activity against Bombyx mori Shunrei x Shogetu fourth-instar larvae assessed as induction of delay in 4th ecdysis at 10 to 30 ppm administered in diet relative to untreated control; type: functional

SMILES	Activity (Bombyx mori [1])	Activity (Bombyx mori [2])	Activity (Bombyx mori [3])	Time (Bombyx mori [4])	Activity (Bombyx mori [5])	Activity (Bombyx mori [6])	Time (Bombyx mori [7])
O=C(O)CC(c1ccccc1)c1ccccc1	inactive						
CN1C2CC[C@@H]1C[C@@H](OC(=O)C(C)(c1ccccc1)c1ccccc1)C2 (single isomer, unassigned)		40%	inactive	5.3 days	inactive	inactive	
CN1C2CC[C@@H]1C[C@@H](OC(=O)C(C)(C)C)C2 (single isomer, unassigned)					inactive	inactive	
CN1C2CC[C@@H]1C[C@@H](OC(=O)C(c1ccccc1)c1ccccc1)C2 (single isomer, unassigned)					inactive	inactive	
CN1C2CC[C@@H]1C[C@@H](OC(=O)CC(c1ccccc1)c1ccccc1)C2 (single isomer, unassigned)	inactive				inactive	inactive	
CN1C2CC[C@@H]1C[C@@H](OC(=O)c1ccc(Cl)cc1Cl)C2 (single isomer, unassigned)					inactive	inactive	
CN1C2CC[C@@H]1C[C@@H](OC(=O)c1ccc3ccccc3c1)C2 (single isomer, unassigned)					inactive	inactive	
CN1[C@@H]2CC[C@H]1C[C@@H](OC(=O)C(CO)c1ccccc1)C2 (stereo not given in full) [ATROPINE]			inactive	4.7 days			1 days
